Reference: patent US20240262826A1, “WILD TYPE KIT INHIBITORS” (Blueprint Medicines Corporation, priority 2022, published 2024)

Key:
wild type c-kit = wild type c-kit (Homo sapiens (Human), UniProt P10721); assay: PathScan phospho c-kit (Tyr719) sandwich ELISA in SCF-stimulated M-07e cells (pKIT assay); type: cell-based; conditions: ELISA assay (values not marked *)
Method in brief: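 Serum- and GM-CSF-starved M-07e cells (4 h) pretreated 60 min at 37 °C with an 8-point compound series in duplicate (0.25% DMSO), then stimulated with human SCF (500 ng/mL stock) 10 min at room temperature. Lysate c-kit Tyr719 phosphorylation quantified by sandwich ELISA with TMB read-out; IC50 from 4-parameter logistic fit.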

[1] = target: human P-glycoprotein (P-gp, MDR1) (Homo sapiens (Human), UniProt P08183); assay: MDCK-MDR1 cell monolayer drug transport assay (P-gp efflux ratio); type: in vitro ADME; conditions: pH 7.4, MDCK-MDR1 cells; for efflux ratio at 2 h, 1 µM: 1 uM concentration of compound, read-out: Pgp Efflux Ratio, 1 uM; for efflux ratio at 2 h, 0.1 µM: 0.1 uM concentration of compound (denoted by **), read-out: Pgp Efflux Ratio
Description: The potential for compounds prepared according to the examples to be substrates of P-gp was evaluated using in vitro on Multidrug Resistance Mutation 1-Mardin-Darby Canine Kidney (MDCK-MDR1)) (Mardin-Darby Canine Kidney) cell monolayers overexpressing P-gp grown on permeable supports.
Preparation for cell seeding: MDCK-MDR1 cell culture medium consisting of Dulbecco's Modified Eagle's Medium (DMEM) with high glucose and L-glutamine supplemented with: 10% FBS, 0.1 mg/mL of streptomycin, 0.6 μg/mL of Kanamycin sulfate and 100 units of penicillin was prepared. 50 μL of culture medium was added to each well of the Transwell insert. The Transwell insert was removed from the reservoir and 25 mL of culture medium was added. After incubation at 37° C., 5% CO2 for 1 hour, the plates were ready for cell seeding. The cells were cultivated in T-75 flasks in a cell culture incubator set at 37° C., 5% CO2, 95% relative humidity until they reached 80-90% confluence before detaching and splitting. The cultivated cells were rinsed in T-75 flasks with 5 mL PBS and aspirated off, and then 1.5 mL trypsin/EDTA was added and incubated at 37° C. for approximately 5 to 10 minutes or until the cells detach and float. The trypsin/EDTA was inactived by adding excess serum containing medium. The cell suspension was transferred to a conical tube and the cells pelleted by centrifugation at 120×g for 10 minutes. The cells were resuspended in seeding medium at a density of 1.56×10^6 cells/mL. This cell concentration was used to seed 5.45×10^5 cells/cm^2.
Seeding and feeding of MDCK-MDR1 cells into transwell plates: 50 μL of the above cell suspension was added to each well of a previously prepared Transwell plate and the plate was incubated for 4-8 days, replacing the medium every other day beginning no sooner than 48 hours after initial plating. The medium must be replaced on the day before conducting the experiment, and the procedure for medium changes was carried out as follows. The plate was removed from the incubator and placed in a hood. The medium was aspirated from a reservoir and each Transwell was inserted. 100 μL of culture medium was added to each well of the Transwell inserts and 25 mL of culture medium to reservoir tray. The plate was returned to the incubator.
Assessment of cell monolayer integrity: When the 4-day cultured MDCK-MDR1 cells reached confluence and were differentiated, the medium was removed from the reservoir and Transwell inserts. 100 μL of prewarmed culture medium was added to each transwell insert and 25 mL was added to the reservoir tray. The electrical resistance across the monolayer was measured using a Millicell Epithelial Volt-Ohm measuring system. The electrical resistance for each well was measured and then the plate was returned to the incubator. TEER values were calculated using this formula: TEER measurement (ohms)×Area of membrane (cm2)=TEER value (ohm cm2). Any monolayer with a TEER value <42 ohms·cm2, indicating poor monolayer formation, was discarded.
Performing the drug transport assay: The MDCK-MDR1 plate was removed from the incubator and the monolayer was washed, exchanging the volume two times using pre-warmed HBSS (Hank's balanced salt solution) (10 mM HEPES, pH 7.4). The plate was then incubated at 37° C. for 30 minutes. A 1 μM compound working solution was prepared as follows: Added […] of stock solution (10 mM in DMSO) of test compound and control compounds (Metoprolol, Prazosin and Imatinib) in one 96 well plate, then added 98 μL of DMSO into the same well to obtain 0.2 mM stock solutions (note a stock solution was further diluted 1:10 for eventually making a 0.1 uM compound working solution). Transfered 3 μL of 0.2 mM solution into 597 μL of transport buffer in one 96 well plate to prepare the 1 μM compound working solution. The plate was shaken at 1000 rpm for 10 min.

Sequence of human P-glycoprotein (P-gp, MDR1) (P08183 whole entry): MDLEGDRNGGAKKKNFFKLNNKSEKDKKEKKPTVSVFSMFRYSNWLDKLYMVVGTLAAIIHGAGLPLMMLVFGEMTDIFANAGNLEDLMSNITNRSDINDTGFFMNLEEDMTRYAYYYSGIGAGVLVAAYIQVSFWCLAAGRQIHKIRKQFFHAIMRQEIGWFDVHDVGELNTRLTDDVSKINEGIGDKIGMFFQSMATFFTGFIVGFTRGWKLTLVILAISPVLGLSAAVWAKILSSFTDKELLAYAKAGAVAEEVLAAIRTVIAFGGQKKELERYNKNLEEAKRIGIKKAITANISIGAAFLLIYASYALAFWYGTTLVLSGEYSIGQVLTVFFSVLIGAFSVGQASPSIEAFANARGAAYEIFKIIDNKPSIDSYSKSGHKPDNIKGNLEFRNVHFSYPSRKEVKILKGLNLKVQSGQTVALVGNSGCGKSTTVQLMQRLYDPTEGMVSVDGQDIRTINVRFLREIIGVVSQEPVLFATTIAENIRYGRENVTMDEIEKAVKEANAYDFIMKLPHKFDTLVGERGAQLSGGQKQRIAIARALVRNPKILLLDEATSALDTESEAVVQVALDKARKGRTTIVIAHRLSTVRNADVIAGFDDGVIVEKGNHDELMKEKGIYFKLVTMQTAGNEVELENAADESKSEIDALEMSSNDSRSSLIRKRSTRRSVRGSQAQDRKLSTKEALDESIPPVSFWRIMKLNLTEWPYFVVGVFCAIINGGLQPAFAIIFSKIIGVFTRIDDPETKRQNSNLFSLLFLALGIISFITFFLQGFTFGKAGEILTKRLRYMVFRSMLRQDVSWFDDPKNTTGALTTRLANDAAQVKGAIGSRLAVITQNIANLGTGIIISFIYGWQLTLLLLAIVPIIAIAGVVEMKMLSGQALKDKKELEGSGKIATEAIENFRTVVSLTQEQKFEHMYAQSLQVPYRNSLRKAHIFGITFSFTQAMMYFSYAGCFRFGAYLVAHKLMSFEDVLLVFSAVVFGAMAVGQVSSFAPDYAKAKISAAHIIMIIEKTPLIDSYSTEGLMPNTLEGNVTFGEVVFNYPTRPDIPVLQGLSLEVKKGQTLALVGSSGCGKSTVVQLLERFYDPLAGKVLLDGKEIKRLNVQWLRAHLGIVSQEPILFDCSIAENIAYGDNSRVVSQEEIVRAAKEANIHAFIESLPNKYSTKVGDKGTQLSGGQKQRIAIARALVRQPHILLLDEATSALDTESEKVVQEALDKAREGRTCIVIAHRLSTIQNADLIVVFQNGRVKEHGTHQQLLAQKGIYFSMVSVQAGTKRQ
Sequence of wild type c-kit (P10721 26-976): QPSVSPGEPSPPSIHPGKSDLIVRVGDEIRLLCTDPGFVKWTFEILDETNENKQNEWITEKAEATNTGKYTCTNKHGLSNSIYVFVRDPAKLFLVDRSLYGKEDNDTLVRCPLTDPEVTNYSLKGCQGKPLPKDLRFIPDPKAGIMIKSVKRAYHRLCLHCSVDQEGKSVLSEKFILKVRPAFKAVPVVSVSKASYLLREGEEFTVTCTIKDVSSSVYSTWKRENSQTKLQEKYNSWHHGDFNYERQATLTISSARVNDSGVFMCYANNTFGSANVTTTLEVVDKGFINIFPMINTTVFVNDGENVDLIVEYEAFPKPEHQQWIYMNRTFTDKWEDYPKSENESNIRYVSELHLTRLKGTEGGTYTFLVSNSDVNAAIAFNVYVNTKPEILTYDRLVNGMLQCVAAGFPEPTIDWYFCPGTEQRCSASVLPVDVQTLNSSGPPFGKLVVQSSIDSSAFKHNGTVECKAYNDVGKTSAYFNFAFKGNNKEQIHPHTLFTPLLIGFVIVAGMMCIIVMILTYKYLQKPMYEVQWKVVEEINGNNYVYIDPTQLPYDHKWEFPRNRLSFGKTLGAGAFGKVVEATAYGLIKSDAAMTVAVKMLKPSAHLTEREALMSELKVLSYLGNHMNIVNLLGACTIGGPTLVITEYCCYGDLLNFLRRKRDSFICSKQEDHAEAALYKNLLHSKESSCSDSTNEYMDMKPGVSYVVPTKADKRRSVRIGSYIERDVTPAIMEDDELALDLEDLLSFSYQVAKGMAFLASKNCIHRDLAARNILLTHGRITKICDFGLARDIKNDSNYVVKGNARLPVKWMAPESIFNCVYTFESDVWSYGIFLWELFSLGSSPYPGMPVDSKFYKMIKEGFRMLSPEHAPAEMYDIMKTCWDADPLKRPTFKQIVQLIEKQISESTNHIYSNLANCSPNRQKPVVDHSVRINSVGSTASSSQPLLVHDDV

IC50 (wild type c-kit) [nM] | efflux ratio at 2 h, 1 µM [1] | efflux ratio at 2 h, 0.1 µM [1] | Compound
50.1 | 11.7 |  | COC(=O)N1CC(n2nnc(-c3ccc(C)c(NC(=O)c4cnn5ccc(N6CCOCC6)cc45)c3)n2)C1 [Example 69, methyl 3-(5-(4-methyl-3-(5-morpholinopyrazolo[1,5-a]pyridine-3-carboxamido)phenyl)-2H-tetrazol-2-yl)azetidine-1-carboxylate]
30.5 | 21.5 |  | COC(=O)N1CC(n2nnc(-c3ccc(C)c(NC(=O)c4cnn5ccc(NCC6CCO6)cc45)c3)n2)C1 (stereo not shown) [Example 95, methyl 3-(5-(4-methyl-3-(5-((oxetan-2-ylmethyl)amino)pyrazolo[1,5-a]pyridine-3-carboxamido)phenyl)-2H-tetrazol-2-yl)azetidine-1-carboxylate]
5.8 | 37.4 |  | Cc1ccc(-c2nnn([C@H]3C[C@@H](C(F)(F)F)C3)n2)cc1NC(=O)c1cnn2ccc(N3CCN(CCO)CC3)cc12 [Example 106, 5-(4-(2-hydroxyethyl)piperazin-1-yl)-N-(2-methyl-5-(2-((1s,3s)-3-(trifluoromethyl)cyclobutyl)-2H-tetrazol-5-yl)phenyl)pyrazolo[1,5-a]pyridine-3-carboxamide]
9.2 | 4 |  | COC(=O)N1CC(c2cnn(-c3ccc(C)c(NC(=O)c4cnn5ccc(N6CCOCC6)cc45)c3)n2)C1 [Example 80, methyl 3-(2-(4-methyl-3-(5-morpholinopyrazolo[1,5-a]pyridine-3-carboxamido)phenyl)-2H-1,2,3-triazol-4-yl)azetidine-1-carboxylate]
3.2 | 16.4 |  | Cc1ccc(-c2nnn(C3CC(F)(F)C3)n2)cc1NC(=O)c1cnn2ccc(N3CCC(C)(O)CC3)cc12 [Example 61, N-(5-(2-(3,3-difluorocyclobutyl)-2H-tetrazol-5-yl)-2-methylphenyl)-5-(4-hydroxy-4-methylpiperidin-1-yl)pyrazolo[1,5-a]pyridine-3-carboxamide]
112 | 23.2 |  | COC(=O)N1CC(n2nnc(-c3ccc(C)c(NC(=O)c4cnn5ccc(N6CC[C@@H](N(C)C)C6)cc45)c3)n2)C1 [Example 97, methyl (R)-3-(5-(3-(5-(3-(dimethylamino)pyrrolidin-1-yl)pyrazolo[1,5-a]pyridine-3-carboxamido)-4-methylphenyl)-2H-tetrazol-2-yl)azetidine-1-carboxylate]

Continued, compound first:

Compound | IC50 (wild type c-kit) [nM] | efflux ratio at 2 h, 1 µM [1] | efflux ratio at 2 h, 0.1 µM [1]
Cc1ccc(-c2nnn(C)n2)cc1NC(=O)c1cnn2ccc(-c3cnn(C[C@H](C)O)c3)cc12 (single isomer, unassigned) [Example 54, (S)-5-(1-(2-hydroxypropyl)-1H-pyrazol-4-yl)-N-(2-methyl-5-(2-methyl-2H-tetrazol-5-yl)phenyl)pyrazolo[1,5-a]pyridine-3-carboxamide or (R)-5-(1-(2-hydroxypropyl)-1H-pyrazol-4-yl)-N-(2-methyl-5-(2-methyl-2H-tetrazol-5-yl)phenyl)pyrazolo[1,5-a]pyridine-3-carboxamide] | 1.4 | 8.4 | 
COCCNc1ccn2ncc(C(=O)Nc3cc(-c4nnn(C5CC(F)C5)n4)ccc3C)c2c1 (stereo not shown) [Example 151, N-(5-(2-(3-fluorocyclobutyl)-2H-tetrazol-5-yl)-2-methylphenyl)-5-((2-methoxyethyl)amino)pyrazolo[1,5-a]pyridine-3-carboxamide] | 4.1 | 4.8 | 
Cc1nn(C[C@H]2CN(C)CCO2)c(C)c1-c1ccn2ncc(C(=O)Nc3cc(-c4nnn(C5CC5)n4)ccc3Cl)c2c1 [Example 274, (R)-N-(2-chloro-5-(2-cyclopropyl-2H-tetrazol-5-yl)phenyl)-5-(3,5-dimethyl-1-((4-methylmorpholin-2-yl)methyl)-1H-pyrazol-4-yl)pyrazolo[1,5-a]pyridine-3-carboxamide] | 0.6 | 1.7 | 
Cc1nn(CCO)cc1-c1ccn2ncc(C(=O)Nc3cc(-c4nnn(C5CC5)n4)ccc3Cl)c2c1 [Example 238, N-[2-chloro-5-(2-cyclopropyl-2H-1,2,3,4-tetrazol-5-yl)phenyl]-5-[1-(2-hydroxyethyl)-3-methyl-1H-pyrazol-4-yl]pyrazolo[1,5-a]pyridine-3-carboxamide] | 0.2 |  | 5.9
Cc1cc(F)c(-c2nnn(C3CC3)n2)cc1NC(=O)c1cnn2ccc(-c3cn(CC(C)(C)O)nc3C3CC3)cc12 [Example 241, 5-(3-cyclopropyl-1-(2-hydroxy-2-methylpropyl)-1H-pyrazol-4-yl)-N-(5-(2-cyclopropyl-2H-tetrazol-5-yl)-4-fluoro-2-methylphenyl)pyrazolo[1,5-a]pyridine-3-carboxamide] | 0.2 |  | 6.3
COCCNc1ccn2ncc(C(=O)Nc3cc(-c4nnn([C@H]5C[C@@H](C(F)(F)F)C5)n4)ccc3C)c2c1 [Example 119, 5-((2-methoxyethyl)amino)-N-(2-methyl-5-(2-((1s,3s)-3-(trifluoromethyl)cyclobutyl)-2H-tetrazol-5-yl)phenyl)pyrazolo[1,5-a]pyridine-3-carboxamide or 5-((2-methoxyethyl)amino)-N-(2-methyl-5-(2-((1r,3r)-3-(trifluoromethyl)cyclobutyl)-2H-tetrazol-5-yl)phenyl)pyrazolo[1,5-a]pyridine-3-carboxamide] | 2.3 | 3.9 | 
Cc1ccc(-c2nnn(C3CC(F)(F)C3)n2)cc1NC(=O)c1cnn2ccc(NCCO)cc12 [Example 101, N-(5-(2-(3,3-difluorocyclobutyl)-2H-tetrazol-5-yl)-2-methylphenyl)-5-((2-hydroxyethyl)amino)pyrazolo[1,5-a]pyridine-3-carboxamide] | 5.2 | 16 | 
Cc1nnn(-c2ccc(C)c(NC(=O)c3cnn4ccc(-c5cnn(CCO)c5)cc34)c2)n1 [Example 51, 5-(1-(2-hydroxyethyl)-1H-pyrazol-4-yl)-N-(2-methyl-5-(5-methyl-2H-tetrazol-2-yl)phenyl)pyrazolo[1,5-a]pyridine-3-carboxamide] | 27.4 | 5.5 | 
Cc1cc(F)c(-c2nnn([C@H]3C[C@@H](C(F)(F)F)C3)n2)cc1NC(=O)c1cnn2ccc(N3CCC(C)(O)CC3)cc12 [Example 109, N-(4-fluoro-2-methyl-5-(2-((1s,3s)-3-(trifluoromethyl)cyclobutyl)-2H-tetrazol-5-yl)phenyl)-5-(4-hydroxy-4-methylpiperidin-1-yl)pyrazolo[1,5-a]pyridine-3-carboxamide] | 4.9 | 15.4 | 
COCCNc1ccn2ncc(C(=O)Nc3cc(-n4nnc(C5CN(C(=O)OC)C5)n4)ccc3Cl)c2c1 [Example 113, methyl 3-(2-(4-chloro-3-(5-((2-methoxyethyl)amino)pyrazolo[1,5-a]pyridine-3-carboxamido)phenyl)-2H-tetrazol-5-yl)azetidine-1-carboxylate] | 6.4 | 3.4 | 
Cc1cc(F)c(-c2nnn(C3CC3)n2)cc1NC(=O)c1cnn2ccc(-c3cnn(CC(C)(C)O)c3)cc12 [Example 207, N-(5-(2-cyclopropyl-2H-tetrazol-5-yl)-4-fluoro-2-methylphenyl)-5-(1-(2-hydroxy-2-methylpropyl)-1H-pyrazol-4-yl)pyrazolo[1,5-a]pyridine-3-carboxamide] | 1.4 | 16.2 | 
